# ChEMBL document CHEMBL1201862, “PubChem BioAssay data set” (2004)
# Calls of active or inactive are those of the source.
# Experiments:
# [1] = cells
# [2] = HEp-2 cell cytotoxicity, dose response, cytotoxicity control for RSV inhibitor project, HTS (AID 2410); format: functional; details: human respiratory syncytial virus
# [3] = target: T1, Mannose-6-phosphate isomerase (Homo sapiens, UniProt P34949); assay: human PMI inhibitors, high substrate, primary screen, biochemical, fluorescence intensity, high mannose 6-phosphate (AID 1220)
# T1 sequence (P34949 whole entry): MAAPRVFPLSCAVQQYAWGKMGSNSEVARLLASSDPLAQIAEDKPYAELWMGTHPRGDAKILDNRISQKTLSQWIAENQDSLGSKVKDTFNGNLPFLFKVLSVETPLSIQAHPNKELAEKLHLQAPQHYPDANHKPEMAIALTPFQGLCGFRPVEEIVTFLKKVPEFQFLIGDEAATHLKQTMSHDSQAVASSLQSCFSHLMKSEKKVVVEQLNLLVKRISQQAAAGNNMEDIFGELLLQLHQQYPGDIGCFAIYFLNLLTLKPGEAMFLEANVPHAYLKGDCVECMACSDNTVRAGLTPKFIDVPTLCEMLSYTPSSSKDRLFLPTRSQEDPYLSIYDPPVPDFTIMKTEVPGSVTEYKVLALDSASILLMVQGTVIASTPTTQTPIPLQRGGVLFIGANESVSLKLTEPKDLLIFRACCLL
# [4] = cytotoxicity in HPDE-C7 cells, cell-based, fluorescence, HTS (AID 430); format: functional; details: Homo sapiens
# [5] = cytotoxicity in KRAS-transformed pancreatic duct cells, primary screen, cell-based, fluorescence, HTS (AID 431); format: functional; details: Homo sapiens;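 further: cell line used: HPDE-C7K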
# [6] = target: Induced myeloid leukemia cell differentiation protein Mcl-1 (Homo sapiens, UniProt Q07820); format: functional
# Induced myeloid leukemia cell differentiation protein Mcl-1, sequence (Q07820 whole entry): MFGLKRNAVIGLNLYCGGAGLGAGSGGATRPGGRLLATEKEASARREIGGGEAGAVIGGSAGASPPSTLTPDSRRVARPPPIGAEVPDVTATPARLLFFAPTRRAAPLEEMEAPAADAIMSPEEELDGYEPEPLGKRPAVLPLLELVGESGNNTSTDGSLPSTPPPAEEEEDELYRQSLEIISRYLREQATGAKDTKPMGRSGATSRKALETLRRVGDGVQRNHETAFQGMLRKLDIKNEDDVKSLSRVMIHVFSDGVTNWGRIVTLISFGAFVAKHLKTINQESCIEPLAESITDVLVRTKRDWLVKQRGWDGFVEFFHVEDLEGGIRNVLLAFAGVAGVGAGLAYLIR
# [7] = THP-1 cell cytotoxicity, dose response, cytotoxicity control for Vif-APOBEC3G degradation inhibitor project, THP-1 cells (AID 1117359); format: functional; details: Human immunodeficiency virus 1, THP-1
# [8] = target: T2, Polyadenylate-binding protein 1 (Homo sapiens, UniProt P11940); assay: PABP1 MLLE–PAM2 interaction inhibitors, dose response, miRNA deadenylation inhibitor project, biochemical, fluorescence polarization, Cy5-PAM2 peptide, secondary (AID 602260); format: functional; details: read-out: IC50_Mean
# T2 sequence (P11940 whole entry): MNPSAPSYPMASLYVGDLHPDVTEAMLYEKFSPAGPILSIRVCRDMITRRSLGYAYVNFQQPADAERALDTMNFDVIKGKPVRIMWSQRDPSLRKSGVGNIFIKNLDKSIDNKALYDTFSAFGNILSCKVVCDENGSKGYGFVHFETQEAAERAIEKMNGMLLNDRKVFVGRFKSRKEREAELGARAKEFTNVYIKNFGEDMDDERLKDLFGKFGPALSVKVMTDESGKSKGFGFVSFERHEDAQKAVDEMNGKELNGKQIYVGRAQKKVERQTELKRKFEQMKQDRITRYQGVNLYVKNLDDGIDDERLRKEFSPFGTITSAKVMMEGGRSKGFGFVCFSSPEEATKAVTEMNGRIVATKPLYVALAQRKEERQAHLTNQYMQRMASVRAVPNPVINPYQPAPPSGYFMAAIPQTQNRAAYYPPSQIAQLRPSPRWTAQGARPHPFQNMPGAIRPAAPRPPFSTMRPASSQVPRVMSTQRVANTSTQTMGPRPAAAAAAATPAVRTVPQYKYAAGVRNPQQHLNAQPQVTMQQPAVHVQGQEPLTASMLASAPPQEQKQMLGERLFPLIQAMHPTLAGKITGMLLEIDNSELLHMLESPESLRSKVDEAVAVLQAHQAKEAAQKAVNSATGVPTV
# [9] = target: T2, Polyadenylate-binding protein 1; assay: PABP1 MLLE–PAM2 binding inhibitor potency, dose response, biochemical, fluorescence polarization, FITC-PAM2 peptide (AID 602259); format: functional; details: read-out: IC50_Mean
# [10] = target: Heat shock protein HSP 90-alpha (Homo sapiens, UniProt P07900); format: functional, organism-based
# [11] = system: Streptococcus sp. 'group A'; assay: growth inhibition of control SK(-) GAS strain, dose response, counter-screen for streptokinase expression inhibitor project, luminescence, kanamycin, BacTiterGlo, confirmation (AID 1900); format: functional, organism-based
# [12] = system: Streptococcus; assay: Group A Streptococcus viability loss, dose response, counter-screen for streptokinase expression inhibitor project, luminescence, BacTiterGlo (AID 1915); format: functional, organism-based;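 further: potency for reduction of bacterial viability or growth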
# [13] = inhibitors of firefly luciferase expression or activity, dose response, H4 neuroglioma cells, luminescence (AID 1990); format: functional, cell-based
# [14] = luciferase reporter signal reduction – luminescence, H4-C neuroglioblastoma cells, dose response (AID 2458); format: functional, cell-based;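 further: H4 neuroglioblastoma cells stably carrying a luciferase reporter gene fusion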
# [15] = cells; format: functional, cell-based
# [16] = Luminescence Cell-Based Dose Response HTS to Identify Inhibitors of 5'UTR Stem-Loop Driven Prion Protein mRNA Translation in H4 Neuroglioblastoma Cells. [Related pubchem assays: 1827 (Project Summary), 1813 (Primary HTS)]; format: functional
# [17] = inhibitors of SNCA 5'UTR-driven reporter translation, confirmation, H4 neuroglioma cells, luminescence (AID 1988); format: functional, cell-based
# [18] = inhibitors of SNCA 5'UTR-driven translation, confirmation, luminescence, H4 neuroglioblastoma cells, dose confirmation (AID 2454); format: functional, cell-based;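 further: H4 neuroglioblastoma cells carrying an alpha-synuclein 5'UTR luciferase reporter; potency for inhibition of the luciferase signal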
# [19] = system: HEK293; assay: cells; details: Homo sapiens
# [20] = system: HEK293; assay: cells; details: Homo sapiens; remark: listed apart in the source
# [21] = target: DNA dC->dU-editing enzyme APOBEC-3A (Homo sapiens, UniProt P31941); assay: APOBEC3A DNA deaminase inhibitors, dose response, biochemical (AID 504722); format: functional
# DNA dC->dU-editing enzyme APOBEC-3A, sequence (P31941 whole entry): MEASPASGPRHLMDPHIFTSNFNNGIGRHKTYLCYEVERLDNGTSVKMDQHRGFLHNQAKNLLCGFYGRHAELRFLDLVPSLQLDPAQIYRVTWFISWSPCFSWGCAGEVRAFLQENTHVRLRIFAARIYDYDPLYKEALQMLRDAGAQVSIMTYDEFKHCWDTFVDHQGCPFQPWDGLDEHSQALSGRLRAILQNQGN
# [22] = target: DNA dC->dU-editing enzyme APOBEC-3G (Homo sapiens, UniProt Q9HC16); assay: Dose Response confirmation of small molecule APOBEC3G DNA Deaminase Inhibitors via a fluorescence-based single-stranded DNA deaminase assay. [Related pubchem assays (depositor defined):AID493012, AID493028]; format: functional
# DNA dC->dU-editing enzyme APOBEC-3G, sequence (Q9HC16 whole entry): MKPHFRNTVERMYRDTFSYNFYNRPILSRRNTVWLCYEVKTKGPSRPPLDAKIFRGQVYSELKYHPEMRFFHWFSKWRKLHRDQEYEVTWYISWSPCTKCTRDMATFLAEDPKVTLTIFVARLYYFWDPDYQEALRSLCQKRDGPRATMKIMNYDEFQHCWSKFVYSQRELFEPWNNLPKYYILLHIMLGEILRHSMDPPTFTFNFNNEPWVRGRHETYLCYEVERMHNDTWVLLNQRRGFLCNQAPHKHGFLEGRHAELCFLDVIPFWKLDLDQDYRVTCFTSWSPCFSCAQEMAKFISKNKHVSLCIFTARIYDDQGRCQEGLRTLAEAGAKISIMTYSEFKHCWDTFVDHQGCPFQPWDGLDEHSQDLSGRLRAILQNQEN
# [23] = inhibitors of intracellular T. cruzi replication, confirmation, NIH3T3 host cells, beta-gal luminescence (AID 2044); format: functional, cell-based;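 further: intracellular parasites grown in NIH/3T3 mouse fibroblasts as host cells; luminescent beta-galactosidase reporter signal from transgenic T. cruzi replicating inside host cells; inhibitors lower the luminescence signal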
# [24] = growth suppression of PTEN-null colon cells, dose response, cell-based, HCT116 PTEN knockout (AID 1047); format: functional;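 further: HCT116 colon tumor cells with PTEN knocked out; cells exposed to compound for 60 hours before readout; potency for loss of cell viability measured by luminescence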
# [25] = cytotoxicity toward NIH3T3 fibroblasts, dose response, counter-screen, cell-based, ATP luminescence, mouse fibroblasts (AID 2010); format: functional;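 further: cells exposed to compound for about 90 hours before reading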
# [26] = growth suppression of beta-catenin-knockout colon cells, dose response, cell-based, HCT116, human colon tumor (AID 1045); format: functional;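 further: HCT116 colon tumor cells with beta catenin knocked out; cells exposed to compound for 60 hours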
# [27] = target: Cytochrome P450 2C19 (Homo sapiens, UniProt P33261); assay: Cytochrome panel assay with activity outcomes. Panel member name: p450-cyp2c19 Compounds with AC50 equal or less than 10 uM are considered active; format: functional; details: read-out: AC50
# Cytochrome P450 2C19, sequence (P33261 whole entry): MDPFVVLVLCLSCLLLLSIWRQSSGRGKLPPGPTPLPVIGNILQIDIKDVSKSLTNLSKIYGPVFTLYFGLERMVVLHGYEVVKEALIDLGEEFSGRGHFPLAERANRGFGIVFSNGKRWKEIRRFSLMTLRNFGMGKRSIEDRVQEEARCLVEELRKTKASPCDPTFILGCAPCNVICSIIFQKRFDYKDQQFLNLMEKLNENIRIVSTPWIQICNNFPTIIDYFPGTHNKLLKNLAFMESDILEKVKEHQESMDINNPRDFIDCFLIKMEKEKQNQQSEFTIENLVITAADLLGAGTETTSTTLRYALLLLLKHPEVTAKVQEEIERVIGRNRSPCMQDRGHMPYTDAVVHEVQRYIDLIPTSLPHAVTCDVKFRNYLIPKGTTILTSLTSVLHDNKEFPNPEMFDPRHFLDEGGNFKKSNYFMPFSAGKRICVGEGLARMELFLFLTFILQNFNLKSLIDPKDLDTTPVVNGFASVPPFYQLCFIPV
# [28] = LGR2 antagonists, dose response, cell-based, HEK293, CRE-luciferase reporter, cherry pick, set 2 (AID 743343); format: functional;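 further: transfected cells were stimulated with diluted bursicon conditioned medium after compound addition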
# [29] = MC4R antagonists, dose response, counter-screen for LGR2 antagonist project, cell-based, plate reader, cherry pick (AID 743444); format: functional;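 further: transfected HEK 293 cells stimulated with alpha-MSH peptide; potency of inhibitors of the alpha-MSH evoked signal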
# [30] = target: T3, Caspase-3 (Homo sapiens, UniProt P42574); format: functional;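 further: Dose-response selectivity test against caspase-3 for candidate inhibitors of sentrin-specific proteases (SENPs)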
# T3 sequence (P42574 whole entry): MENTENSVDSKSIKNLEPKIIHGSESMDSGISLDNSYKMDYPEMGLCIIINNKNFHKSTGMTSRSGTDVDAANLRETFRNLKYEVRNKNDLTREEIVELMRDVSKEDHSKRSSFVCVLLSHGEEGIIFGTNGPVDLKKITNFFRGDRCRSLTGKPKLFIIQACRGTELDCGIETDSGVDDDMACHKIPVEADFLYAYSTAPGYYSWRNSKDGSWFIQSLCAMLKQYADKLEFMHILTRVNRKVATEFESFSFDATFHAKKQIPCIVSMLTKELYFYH
# [31] = target: T4, Sentrin-specific protease 6 (Homo sapiens, UniProt Q9GZR1); format: functional;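 further: Luminescence-based dose-response confirmatory assay of SENP6 inhibition, following up an ultra-high-throughput screen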
# T4 sequence (Q9GZR1 whole entry): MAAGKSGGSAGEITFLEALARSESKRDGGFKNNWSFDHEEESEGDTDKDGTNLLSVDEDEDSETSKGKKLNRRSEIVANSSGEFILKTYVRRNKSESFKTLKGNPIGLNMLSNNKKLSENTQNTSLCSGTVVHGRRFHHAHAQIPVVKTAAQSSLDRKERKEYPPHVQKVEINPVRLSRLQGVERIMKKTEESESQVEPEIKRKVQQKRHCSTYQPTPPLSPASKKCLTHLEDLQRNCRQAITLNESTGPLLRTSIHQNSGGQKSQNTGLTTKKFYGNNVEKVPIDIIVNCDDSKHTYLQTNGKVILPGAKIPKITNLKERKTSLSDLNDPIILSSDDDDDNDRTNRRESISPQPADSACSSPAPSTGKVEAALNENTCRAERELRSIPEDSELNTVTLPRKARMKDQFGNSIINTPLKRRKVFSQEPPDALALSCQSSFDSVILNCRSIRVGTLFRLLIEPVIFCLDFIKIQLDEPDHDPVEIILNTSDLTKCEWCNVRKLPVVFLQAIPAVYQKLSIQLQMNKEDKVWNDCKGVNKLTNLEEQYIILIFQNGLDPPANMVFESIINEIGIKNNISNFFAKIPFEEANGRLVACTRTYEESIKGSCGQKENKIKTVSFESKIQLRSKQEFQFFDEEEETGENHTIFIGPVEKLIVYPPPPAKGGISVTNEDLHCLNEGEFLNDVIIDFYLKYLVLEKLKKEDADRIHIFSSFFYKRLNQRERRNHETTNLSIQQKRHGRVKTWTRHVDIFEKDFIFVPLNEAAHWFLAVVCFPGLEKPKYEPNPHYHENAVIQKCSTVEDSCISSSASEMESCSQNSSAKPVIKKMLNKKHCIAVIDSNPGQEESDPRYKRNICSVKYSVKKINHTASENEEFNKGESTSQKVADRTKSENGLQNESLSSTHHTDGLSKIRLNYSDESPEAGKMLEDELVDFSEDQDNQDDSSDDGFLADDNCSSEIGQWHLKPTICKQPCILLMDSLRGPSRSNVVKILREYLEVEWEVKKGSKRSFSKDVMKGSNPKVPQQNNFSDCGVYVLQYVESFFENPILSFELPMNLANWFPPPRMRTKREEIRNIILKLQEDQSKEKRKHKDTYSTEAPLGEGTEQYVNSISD
# [32] = target: T5, Sentrin-specific protease 8 (Homo sapiens, UniProt Q96LD8); format: functional;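 further: luminescence read-out of SENP8 inhibition, dose-response confirmation following an ultra-high-throughput screen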
# T5 sequence (Q96LD8 whole entry): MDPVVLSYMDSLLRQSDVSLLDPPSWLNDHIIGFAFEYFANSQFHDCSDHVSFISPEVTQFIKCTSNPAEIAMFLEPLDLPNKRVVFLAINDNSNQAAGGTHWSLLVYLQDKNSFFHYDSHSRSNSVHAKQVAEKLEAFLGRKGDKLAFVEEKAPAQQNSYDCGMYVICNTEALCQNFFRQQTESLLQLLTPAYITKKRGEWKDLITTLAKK
compound,measurement,setting,value
COCCCNC(=O)c1ccc(Cn2c(=O)c3ccccc3n(Cc3ccc(C)cc3)c2=O)cc1,IC50,[1],2.98 µM (active)
Cc1cc(C)c(S(=O)(=O)N2CCCCC2CCNC(=O)C(=O)NC2CC2)c(C)c1 (stereo unspecified),CC50,[2],20.3 µM (active)
same,IC50,[1],4.37 µM (active)
O=C(N/N=C/c1ccc(N2CCOCC2)o1)c1cccc([N+](=O)[O-])c1,IC50,[3],> 50 µM (not active)
CCCc1ccc(Oc2c(C)n[nH]c2-c2ccc(O)c(C)c2O)cc1,EC50,[4],4.88 µM (active)
same,EC50,[5],4.42 µM (active)
O=C(/C=C/c1cccs1)N1CCN(c2ccc(O)cc2)CC1,IC50,[6],5.63 µM (active)
same,CC50,[7],> 40 µM (active)
Cc1[nH]n(C2=NCCS2)c(=O)c1N=Nc1ccccc1,IC50,[8],> 66 µM (inactive)
same,IC50,[9],> 66 µM (inactive)
Cc1ccc(NC(S)=NCC23C=CC(O2)C2C(=O)N(c4ccc(C)cc4)C(=O)C23)cc1 (stereo unspecified),AC50,[10],4.6 µM (active)
CCN1CCN(C(=O)C(C)Nc2cc(Cl)c(OC)cc2OC)CC1 (stereo unspecified),IC50,[3],> 50 µM (not active)
CCCc1cc(-c2[nH]ncc2-c2ccc3c(c2)OCCCO3)c(O)cc1O,EC50,[4],8.22 µM (active)
same,EC50,[5],8.05 µM (active)
COc1ccccc1/C=C/C(=O)NCC(=O)N/N=C(/C)c1ccc(Cl)cc1,IC50,[1],25.4 µM (active)
C=CCN1C(=O)NC(=O)/C(=C(/CC)Nc2ccc(N(CC)CC)cc2)C1=O,EC50,[11],1.23 µM (active)
same,EC50,[4],> 20 µM (not active)
same,EC50,[5],> 20 µM (not active)
same,EC50,[12],2.03 µM (active)
COc1cc(SC)ccc1C(=O)Nc1c(C)cccc1C,CC50,[7],> 40 µM (active)
COc1ccc(N(CC(=O)NC2CCCCC2)C(=O)c2ccc(C)s2)c(OC)c1,CC50,[2],43.8 µM (active)
same,IC50,[1],10.9 µM (active)
CN(C)c1oc(-c2ccccc2[N+](=O)[O-])nc1C#N,IC50,[8],> 66 µM (inactive)
same,IC50,[9],> 66 µM (inactive)
O=C(O)c1ccccc1NC(c1ccccc1)c1ccc2cccnc2c1O (stereo unspecified),AC50,[10],7.23 µM (active)
COc1ccccc1OCC(=O)Nn1c(=S)[nH]c2ncccc2c1=O,IC50,[8],> 66 µM (inactive)
same,IC50,[9],> 66 µM (inactive)
Cc1ccc(N2C(=O)C3C4C=CC(CN=C(S)N5CCN(c6ccccc6)CC5)(O4)C3C2=O)cc1 (stereo unspecified),AC50,[10],14.9 µM (active)
CCOC(=O)C1=C(N)N2C(=O)C(C)SC2=C(C(=O)OC)C1c1ccccc1OC (stereo unspecified),AC50,[10],0.982 µM (active)
c1ccc(-c2noc(-c3ccc4ccccc4c3)n2)cc1,EC50,[13],< 0.1 µM (active)
same,EC50,[14],0.974 µM (active)
same,EC50,[15],0.694 µM (inconclusive)
same,EC50,[16],8.76 µM (active)
same,EC50,[17],< 0.1 µM (active)
same,EC50,[18],0.636 µM (active)
O=c1[nH]c(=O)n([C@@H]2O[C@H](CO)[C@@H](O)[C@H]2O)cc1F [5-FLUOROURIDINE],EC50,[19],> 59.6 µM (inactive)
same,EC50,[20],> 59.6 µM (inactive)
O=C(CNc1cccc(C(F)(F)F)c1)N/N=C/c1cn(-c2ccccc2)nc1-c1ccccc1,CC50,[2],> 50 µM (active)
same,IC50,[1],19.8 µM (active)
COc1ccc(OCc2n[nH]c(=S)n2N)cc1,IC50,[3],21.4 µM (active)
same,IC50,[21],> 100 µM (inactive)
same,IC50,[22],7.1 µM (active)
CC(=O)NNC(=O)CN1C(=O)/C(=C/c2ccccc2)SC1=S,IC50,[8],> 66 µM (inactive)
same,IC50,[9],> 66 µM (inactive)
Cc1ccc2[nH]c(C)c(/C=N/Nc3nc4ccccc4s3)c2c1,CC50,[2],14.6 µM (active)
same,EC50,[23],2.24 µM (active)
same,EC50,[24],18 µM (active)
same,EC50,[25],> 60 µM (inconclusive)
same,EC50,[26],19.7 µM (active)
same,AC50,[10],5.3 µM (active)
CSc1ccc(NC(=O)Nc2cc(C)ccn2)cc1,AC50,[27],3.98 µM (inconclusive)
same,AC50,[28],3.7 µM (active)
same,AC50,[29],9.27 µM (active)
Cc1ccc(Cl)c2sc(NC(=O)C3=COCCO3)nc12,IC50,[30],63.4 µM (active)
same,IC50,[31],13.1 µM (active)
same,IC50,[32],> 100 µM (inactive)
